Reference: patent publication US10927117B2 (BEIGENE SWITZERLAND GMBH, priority 2016, dated 2021)

Columns and labels:
[1] = Nonclinical toxicity studies in rats
Source text: (§1) These studies took account the available regulatory guidance for preclinical development of anticancer drugs.

[2] = Nonclinical toxicity studies in dogs
Source text: as §1

Tissue distribution = format: in vivo
[3] = tested on: advanced B cell malignancies; assay: Phase 1 trial in patients with advanced B cell malignancies (cutoff Oct. 19, 2015); format: in vivo, human
Source text: A total of 39 patients, including all 25 patients from the initial dose-escalation component and 14 patients from the ongoing dose-expansion component were enrolled.
As of Oct. 19, 2015, the cutoff date for data analysis, 29 objective responses have been observed, including 3 complete responses (CRs), 1 very good partial response (VGPR), and 25 partial responses (PRs). 31 of the 39 patients remain on study treatment, free of progression, including all patients to date who have achieved an objective response.

[4] = tested on: systemic REC-1 MCL engrafts; assay: Efficacy study in systemic REC-1 xenograft model; format: in vivo, NOD/SCID mice; conditions: different dose levels BID p.o., 71 days
Procedure: Animals were pre-treated with cyclophosphamide (prepared in saline, 150 mpk i.p.) and disulfiram (prepared in 0.8% TW-80 in saline, 125 mpk p.o., one hour after each dose of cyclophosphamide) once daily for two days. Animals were then inoculated with REC-1 cells 24 hours after the second dose of cyclophosphamide. On the day of implantation, cell culture medium was replaced with fresh medium. Four hours later, media was removed and cells were collected as described above. Cells were re-suspended in cold (4° C.) PBS to give a final concentration of 1×10^8 cells/ml. Resuspended cells were placed on ice prior to implantation. Each animal was injected intravenously via tail vein with 1×10^7 cells in […] of cell suspension.
For in vivo efficacy studies, starting from day 8 after cell inoculation, animals were randomly assigned into desired number of groups with 10 mice per group. […] Body weight was assessed immediately before dosing and volume dosed was adjusted accordingly. Body weight was recorded twice weekly (changed to three times per week from day 33). […] In the case of severe toxic effect, such as loss of movement, mice were euthanized and scored as death.
For Data Analysis: Survival analysis was performed by Kaplan-Meier method. […] For each group, median survival time (MST), range of survival time (RST) with 95% confidence interval and increase in life-span (ILS) were calculated. […]

[5] = Pharmacokinetics in dogs (LC-MS/MS); format: in vivo, beagle dogs
Hygroscopic test (DVS) = format: physicochemical; conditions: 80% RH, 25° C.
Procedure: The dynamic vapor sorption (DVS) plots shown as in FIG. 6 was collected a SMS (Surface Measurement Systems) DVS Intrinsic. The DVS parameters used includes: temperature (25° C.); dm/dt (0.002%/min); Min. dm/dt stability duration (10 min); Max. equilibrium time (180 min); RH range (0% RH to 95% RH); RH step size(10% RH from 0% RH to 90% RH, 5% RH from 90% RH to 95% RH).

[6] = Burkitt's-like Lymphoma patients
[7] = Burkitt's-like Lymphoma patients, number of patients/total
[8] = Chronic Lymphocytic Leukemia patients
[9] = Chronic Lymphocytic Leukemia patients, number of patients/total
[10] = DLBCL patients, number of patients/total
[11] = Hairy Cell Leukemia patients, number of patients/total
[12] = Indolent NHL patients, number of patients/total
[13] = Mantle Cell Lymphoma patients, number of patients/total
[14] = Waldenström's Macroglobulinemia patients
[15] = Waldenström's Macroglobulinemia patients, number of patients/total

C=CC(=O)N1CCC([C@@H]2CCNc3c(C(N)=O)c(-c4ccc(Oc5ccccc5)cc4)nn32)CC1 [Compound 1, (S)-7-(1-acryloylpiperidin-4-yl)-2-(4-phenoxyphenyl)-4,5,6,7-tetra-hydropyrazolo[1,5-a]pyrimidine-3-carboxamide]
overall tolerance and severe toxicities compared with ibrutinib ([1]; rat single and repeat dose toxicity studies up to 28 days): safer than ibrutinib
overall tolerance and severe toxicities compared with ibrutinib ([2]; dog single and repeat dose toxicity studies up to 28 days): safer than ibrutinib
level in brain tissue (Tissue distribution; brain): low in brain tissue
tissue distribution (Tissue distribution; various tissues): widely distributed to various tissues
patients who discontinued ([3]; 6 disease progression, 2 adverse events related to underlying malignancy): 8
exacerbation or new event of atrial fibrillation/flutter (AF) ([3]; 6 patients with baseline history of AF): no exacerbation or new event of AF
complete responses (CRs) ([3]; 39 patients enrolled): 3
partial responses (PRs) ([3]; 39 patients enrolled): 25
very good partial response (VGPR) ([3]; 39 patients enrolled): 1
objective responses ([3]; 39 patients enrolled, cutoff Oct. 19, 2015): 29
Best Response CR [3, 6]: (0%)
Best Response PD [3, 6]: (100%)
Best Response PR [3, 6]: (0%)
Best Response SD [3, 6]: (0%)
ORR (CR + PR) [3, 6]: (0%)
Best Response CR [3, 7]: 0/1
Best Response PD [3, 7]: 1/1
Best Response PR [3, 7]: 0/1
Best Response SD [3, 7]: 0/1
ORR (CR + PR) [3, 7]: 0/1
Best Response PD [3, 8]: (0%)
Best Response SD [3, 8]: (7%)
ORR (CR + PR) [3, 8]: (93%)
Best Response CR ([3]; Chronic Lymphocytic Leukemia patients, cutoff Oct. 19, 2015): (0%)
Best Response PR ([3]; Chronic Lymphocytic Leukemia patients, includes five patients with lymphocytosis at latest assessment): (93%)
Best Response PD ([3]; Chronic Lymphocytic Leukemia patients, number of patients): 0
Best Response SD [3, 9]: 1/14
ORR (CR + PR) [3, 9]: 13/14
Best Response CR ([3]; Chronic Lymphocytic Leukemia patients, number of patients/total, cutoff Oct. 19, 2015): 0/14
Best Response PR ([3]; Chronic Lymphocytic Leukemia patients, number of patients/total, includes five patients with lymphocytosis at latest assessment): 13/14^1
Best Response CR ([3]; DLBCL patients): (25%)
Best Response PD ([3]; DLBCL patients): (75%)
Best Response PR ([3]; DLBCL patients): (0%)
Best Response SD ([3]; DLBCL patients): (0%)
ORR (CR + PR) ([3]; DLBCL patients): (25%)
Best Response CR [3, 10]: 1/4
Best Response PD [3, 10]: 3/4
Best Response PR [3, 10]: 0/4
Best Response SD [3, 10]: 0/4
ORR (CR + PR) [3, 10]: 1/4
Best Response CR ([3]; Hairy Cell Leukemia patients): (0%)
Best Response PD ([3]; Hairy Cell Leukemia patients): (0%)
Best Response PR ([3]; Hairy Cell Leukemia patients): (100%)
Best Response SD ([3]; Hairy Cell Leukemia patients): (0%)
ORR (CR + PR) ([3]; Hairy Cell Leukemia patients): (100%)
Best Response CR [3, 11]: 0/1
Best Response PD [3, 11]: 0/1
Best Response PR [3, 11]: 1/1
Best Response SD [3, 11]: 0/1
ORR (CR + PR) [3, 11]: 1/1
Best Response CR ([3]; Indolent NHL patients): (0%)
Best Response PD ([3]; Indolent NHL patients): (0%)
Best Response PR ([3]; Indolent NHL patients): (0%)
Best Response SD ([3]; Indolent NHL patients): (100%)
ORR (CR + PR) ([3]; Indolent NHL patients): (0%)
Best Response CR [3, 12]: 0/2
Best Response PD [3, 12]: 0/2
Best Response PR [3, 12]: 0/2
Best Response SD [3, 12]: 2/2
ORR (CR + PR) [3, 12]: 0/2
Best Response CR ([3]; Mantle Cell Lymphoma patients): (20%)
Best Response PD ([3]; Mantle Cell Lymphoma patients): (10%)
Best Response PR ([3]; Mantle Cell Lymphoma patients): (60%)
Best Response SD ([3]; Mantle Cell Lymphoma patients): (10%)
ORR (CR + PR) ([3]; Mantle Cell Lymphoma patients): (80%)
Best Response CR [3, 13]: 2/10
Best Response PD [3, 13]: 1/10
Best Response PR [3, 13]: 6/10
Best Response SD [3, 13]: 1/10
ORR (CR + PR) [3, 13]: 8/10
Best Response CR [3, 14]: (0%)
Best Response PD [3, 14]: (14%)
Best Response SD [3, 14]: (0%)
ORR (CR + PR) [3, 14]: (86%)
Best Response PR ([3]; Waldenström's Macroglobulinemia patients, includes one patient with VGPR): (86%)
Best Response CR [3, 15]: 0/7
Best Response PD [3, 15]: 1/7
Best Response SD [3, 15]: 0/7
ORR (CR + PR) [3, 15]: 6/7
Best Response PR ([3]; Waldenström's Macroglobulinemia patients, number of patients/total, includes one patient with VGPR): 6/7^2
≥Grade 3 AEs assessed as possibly drug-related ([3]; all self-limited neutropenia): 4
patients who died during study ([3]; disease progression or its complications): 3
drug-related serious adverse events (SAEs) ([3]; human, in vivo): no drug-related serious adverse events
number of ≥Grade 3 AEs ([3]; human, in vivo): 19
major hemorrhage ([3]; not considered drug-related): one case
patients remaining on study treatment, free of progression ([3]; of the 39 patients): 31
time-dependent CYP inhibition potential (7 major human CYPs): unlikely to be time dependent CYP inhibitors

C=CC(=O)N1CCC([C@@H]2CCNc3c(C(N)=O)c(-c4ccc(Oc5ccccc5)cc4)nn32)CC1 [Crystalline Form A, (S)-7-(1-acryloylpiperidin-4-yl)-2-(4-phenoxyphenyl)-4,5,6,7-tetra-hydropyrazolo[1,5-a]pyrimidine-3-carboxamide]
anti-tumor activity (overall survival) [4]: dose-dependent anti-tumor activity
test article-related mortality ([1]; rat, in vivo): No test article-related mortality
changes in clinical chemistry or coagulation ([1]; rats): No toxicologically significant changes
test article-related mortality ([2]; dog, in vivo): No test article-related mortality
changes in clinical chemistry or coagulation ([2]; dogs): No toxicologically significant changes
accumulation following multiple oral dosing [5]: no accumulation
bioavailability (F %) [5]: reasonably good bioavailability
clearance (CL) [5]: moderate clearance
linearity of PK over the dose range [5]: linear PK over the dose range
increase of mass (DVS) (Hygroscopic test (DVS)): about 0.8%
